Among the data in US20240208907A1, “GPR52 MODULATORS AND METHODS OF USE” (Neurocrine Biosciences, Inc., priority 2021, published 2024) are EC50 values, retold here.

Structures can show the parent of a compound that is named as a salt. Some results are limits rather than exact numbers.

For this experiment, the target named is T1, recombinant human GPR52 (Homo sapiens, UniProt Q9Y2T5).
T1 construct: expressed in transfected cells
T1 sequence (Q9Y2T5 whole entry): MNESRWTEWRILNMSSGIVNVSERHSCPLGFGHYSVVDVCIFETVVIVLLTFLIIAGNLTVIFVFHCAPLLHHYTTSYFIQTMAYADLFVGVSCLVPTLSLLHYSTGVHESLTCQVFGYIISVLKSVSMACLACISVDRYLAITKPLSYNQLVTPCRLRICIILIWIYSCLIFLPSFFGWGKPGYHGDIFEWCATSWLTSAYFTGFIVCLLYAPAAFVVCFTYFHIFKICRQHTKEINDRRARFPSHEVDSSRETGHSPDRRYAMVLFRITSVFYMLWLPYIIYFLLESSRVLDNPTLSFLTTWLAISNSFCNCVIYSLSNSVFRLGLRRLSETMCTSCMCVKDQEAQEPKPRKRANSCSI
Put plainly: GPR52 activity: TR-FRET cAMP assay (LANCE Ultra cAMP Kit). The format is cell-based. The settings on record: Flp-In-CHO cells stably expressing recombinant human GPR52; cAMP production, normalized to positive control. The method, then: TR-FRET cAMP assays were performed using commercially available assay kits (LANCE™ Ultra cAMP Kit). Controls and compounds were solubilized in DMSO using ½ log dilution to generate duplicate 10-point dose response curves in 384-well polypropylene compound plates. Sixty nanoliters of the diluted compounds were transferred into 384-well NBS assay plates and further diluted to 1× with the addition of 2000 cells per well. Flp-In™-CHO cells that stably express recombinant human GPR52.
Cells were harvested with cell stripper and resuspended in Stimulation Buffer (5 mM HEPES, 0.1% bovine serum albumin (BSA), 0.5 mM IBMX, pH 7.4). After thirty minutes incubation at room temperature, detection reagents were added to each well. Plates were then incubated for 30 minutes at room temperature. The LANCE™ Ultra cAMP assay uses time-resolved fluorescence resonance energy transfer (TR-FRET) to detect cAMP production; this signal was quantified using a Pherastar multi-mode plate reader.
Dose-response curves were generated from the fluorescence counts normalized to the positive control. E EC50 values were obtained using a nonlinear regression curve-fitting program.
Turning to `N#Cc1cc(Cc2ccnc(-c3ccc(C(N)=O)c(F)c3)c2)cc(F)c1F` [Compound 24, 4-{4-[(3-cyano-4,5-difluorophenyl)methyl]pyridin-2-yl}-2-fluorobenzamide], the EC50 is 101 to 1000 nM.

Consider `Cc1cc(-c2cccc(Cc3cccc(C(F)(F)F)c3)n2)ccc1C(N)=O` [Compound 12, 2-methyl-4-(6-{[3-(trifluoromethyl)phenyl]methyl}pyridin-2-yl)benzamide], for which the EC50 is 25 to 100 nM.

Take `COc1ccc(Cc2ccnc(-c3ccc(C(N)=O)cc3)c2)cc1F` [Compound 20, 4-{4-[(3-fluoro-4-methoxyphenyl)methyl]pyridin-2-yl}benzamide]: the EC50 was in the range of 101 to 1000 nM.

For the molecule `N#Cc1cc(Cc2ccnc(-c3ccc(C(N)=O)c(C(F)(F)F)c3)c2)cc(F)c1F` [Compound 6, 4-{4-[(3-cyano-4,5-difluorophenyl)methyl]pyridin-2-yl}-2-(trifluoromethyl)benzamide], the EC50 is below 25 nM.

Take `NC(=O)Cc1ccc(-c2cc(Cc3cccc(C(F)(F)F)c3)ccn2)cc1` [Compound 18, 2-[4-(4-{[3-(trifluoromethyl)phenyl]methyl}pyridin-2-yl)phenyl]acetamide]: the EC50 was 25 to 100 nM.

As to `Cc1cc(-c2cc(Cc3cc(F)c(F)c(C#N)c3)ccn2)ccc1C(N)=O` [Compound 7, 4-{4-[(3-cyano-4,5-difluorophenyl)methyl]pyridin-2-yl}-2-methylbenzamide], the EC50 was 25 to 100 nM.

Regarding `Cc1cc(-c2cc(Cc3cncc(S(C)(=O)=O)c3)ccn2)ccc1C(N)=O` [Compound 44, 4-{4-[(5-methanesulfonylpyridin-3-yl)methyl]pyridin-2-yl}-2-methylbenzamide], the EC50 was below 25 nM.

As for `Cc1cc(-c2cc(Cc3cccc(C(F)(F)F)c3)ccn2)ccc1C(=O)NCCO` [Compound 36, N-(2-hydroxyethyl)-2-methyl-4-(4-{[3-(trifluoromethyl)phenyl]methyl}pyridin-2-yl)benzamide], the EC50 was 25 to 100 nM.

For `Cc1cc(-c2cc(Cc3ccc(F)c(C#N)c3)ccn2)ccc1C(N)=O` [Compound 8, 4-{4-[(3-cyano-4-fluorophenyl)methyl]pyridin-2-yl}-2-methylbenzamide], the EC50 lay in the range of 25 to 100 nM.

As to `Cc1cc(-c2cc(Cc3cc(F)c(F)c(C#N)c3)c(F)cn2)ccc1C(N)=O` [Compound 9, 4-{4-[(3-cyano-4,5-difluorophenyl)methyl]-5-fluoropyridin-2-yl}-2-methylbenzamide], the EC50 was 25 to 100 nM.

`N#Cc1cc(Cc2ccnc(-c3cccc(C(N)=O)c3)c2)cc(F)c1F` [Compound 38, 3-{4-[(3-cyano-4,5-difluorophenyl)methyl]pyridin-2-yl}benzamide]: the EC50 was in the range of 101 to 1000 nM.

Consider `CSc1cccc(Cc2ccnc(-c3ccc(C(N)=O)c(C)c3)c2)c1` [Compound 5, 2-methyl-4-(4-{[3-(methylsulfanyl)phenyl]methyl}pyridin-2-yl)benzamide], for which the EC50 was below 25 nM.

Regarding `N#Cc1cc(Cc2ccnc(-c3ccc(C(N)=O)cc3)c2)cc(F)c1F` [Compound 30, 4-{4-[(3-cyano-4,5-difluorophenyl)methyl]pyridin-2-yl}benzamide hydrochloride], the concentration for a half-maximal effect (EC50) is 101 to 1000 nM.

As to `Cc1cc(-c2cc(Cc3cccc(C(F)(F)F)c3)ccn2)ccc1C(N)=O` [Compound 1, 2-methyl-4-(4-{[3-(trifluoromethyl)phenyl]methyl}pyridin-2-yl)benzamide], the EC50 is below 25 nM.

Turning to `COc1cc(Cc2ccnc(-c3ccc(C(N)=O)c(C)c3)c2)cc(F)c1F` [Compound 4, 4-{4-[(3,4-difluoro-5-methoxyphenyl)methyl]pyridin-2-yl}-2-methylbenzamide], the EC50 is below 25 nM.

For the molecule `COc1ccc(Cc2ccnc(-c3cccc(C(N)=O)c3)c2)cc1F` [Compound 29, 3-{4-[(3-fluoro-4-methoxyphenyl)methyl]pyridin-2-yl}benzamide], the EC50 fell in the range of 101 to 1000 nM.

As to `Cc1cc(F)cc(Cc2ccnc(-c3ccc(C(N)=O)cc3)c2)c1` [Compound 28, 4-{4-[(3-fluoro-5-methylphenyl)methyl]pyridin-2-yl}benzamide], the EC50 was in the range of 101 to 1000 nM.

As to `NC(=O)c1cccc(-c2cc(Cc3cc(F)cc(Cl)c3)ccn2)c1` [Compound 25, 3-{4-[(3-chloro-5-fluorophenyl)methyl]pyridin-2-yl}benzamide], the EC50 was 101 to 1000 nM.

In the case of `NC(=O)c1cccc(-c2cc(Cc3cc(F)cc(C(F)(F)F)c3)ccn2)c1` [Compound 17, 3-(4-{[3-fluoro-5-(trifluoromethyl)phenyl]methyl}pyridin-2-yl)benzamide], the EC50 was in the range of 25 to 100 nM.

In the case of `Cc1cc(-c2cc(Cc3cccc(S(C)(=O)=O)c3)ccn2)ccc1C(N)=O` [Compound 11, 4-{4-[(3-methanesulfonylphenyl)methyl]pyridin-2-yl}-2-methylbenzamide hydrochloride], the 50% effective concentration (EC50) is 25 to 100 nM.

With `N#Cc1cc(Cc2ccnc(-c3ccc4c(c3)CCNC4=O)c2)ccc1F` [Compound 42, 2-fluoro-5-{[2-(1-oxo-1,2,3,4-tetrahydroisoquinolin-6-yl)pyridin-4-yl]methyl}benzonitrile], the EC50 fell in the range of 101 to 1000 nM.

In the case of `COc1cc(-c2cc(Cc3cc(F)c(F)c(C#N)c3)ccn2)ccc1C(N)=O` [Compound 13, 4-{4-[(3-cyano-4,5-difluorophenyl)methyl]pyridin-2-yl}-2-methoxybenzamide], the EC50 is 25 to 100 nM.

Regarding `N#Cc1cc(Cc2ccnc(-c3cccc(CC(N)=O)c3)c2)cc(F)c1F` [Compound 33, 2-(3-{4-[(3-cyano-4,5-difluorophenyl)methyl]pyridin-2-yl}phenyl)acetamide], the EC50 is 101 to 1000 nM.

For `N#Cc1cc(F)cc(Cc2ccnc(-c3ccc(C(N)=O)cc3)c2)c1` [Compound 40, 4-{4-[(3-cyano-5-fluorophenyl)methyl]pyridin-2-yl}benzamide], the EC50 is above 1000 nM.

On to `NC(=O)c1ccc(-c2cc(Cc3cc(C(F)(F)F)ccc3F)ccn2)cc1` [Compound 39, 4-(4-{[2-fluoro-5-(trifluoromethyl)phenyl]methyl}pyridin-2-yl)benzamide], for which the EC50 is 101 to 1000 nM.

With `Cc1cc(-c2cc(C(O)c3cccc(C(F)(F)F)c3)ccn2)ccc1C(N)=O` (stereo not drawn) [Compound 43, 4-(4-{hydroxy [3-(trifluoromethyl)phenyl]methyl}pyridin-2-yl)-2-methylbenzamide], the EC50 was above 1000 nM.

On to `Cc1cc(-c2cc(Cc3cc(F)c(F)c(C#N)c3)ccn2)cc(F)c1C(N)=O` [Compound 15, 4-{4-[(3-cyano-4,5-difluorophenyl)methyl]pyridin-2-yl}-2-fluoro-6-methylbenzamide], for which the EC50 was in the range of 25 to 100 nM.

Consider `Cc1cc(-c2cc(Cc3cccc(C(F)(F)F)c3)ccn2)ccc1C(=O)NCCCO` [Compound 37, N-(3-hydroxypropyl)-2-methyl-4-(4-{[3-(trifluoromethyl)phenyl]methyl}pyridin-2-yl)benzamide], for which the EC50 was in the range of 25 to 100 nM.

As for `Cc1cc(-c2cc(Cc3cccc(S(C)(=O)=O)c3)c(F)cn2)ccc1C(N)=O` [Compound 31, 4-{5-fluoro-4-[(3-methanesulfonylphenyl)methyl]pyridin-2-yl}-2-methylbenzamide hydrochloride], the EC50 fell in the range of 25 to 100 nM.

Consider `Cc1cc(-c2cc(Cc3cc(F)cc(C#N)c3)ccn2)ccc1C(N)=O` [Compound 3, 4-{4-[(3-cyano-5-fluorophenyl)methyl]pyridin-2-yl}-2-methylbenzamide], for which the EC50 is below 25 nM.

In the case of `Cc1cc(Cc2ccnc(-c3cccc(C(N)=O)c3)c2)ccc1F` [Compound 19, 3-{4-[(4-fluoro-3-methylphenyl)methyl]pyridin-2-yl}benzamide], the EC50 was 25 to 100 nM.

Regarding `Cc1cc(Cc2ccnc(-c3ccc(C(N)=O)cc3)c2)ccc1F` [Compound 10, 4-{4-[(4-fluoro-3-methylphenyl)methyl]pyridin-2-yl}benzamide], the EC50 is 25 to 100 nM.

Regarding `NC(=O)c1ccc(-c2cc(Cc3cc(F)cc(C(F)(F)F)c3)ccn2)cc1` [Compound 14, 4-(4-{[3-fluoro-5-(trifluoromethyl)phenyl]methyl}pyridin-2-yl)benzamide], the EC50 lay in the range of 25 to 100 nM.

As for `NC(=O)Cc1cccc(-c2cc(Cc3cccc(C(F)(F)F)c3)ccn2)c1` [Compound 16, 2-[3-(4-{[3-(trifluoromethyl)phenyl]methyl}pyridin-2-yl)phenyl]acetamide], the EC50 fell in the range of 25 to 100 nM.

`CS(=O)(=O)c1cccc(Cc2ccnc(-c3ccc(C(N)=O)cc3)c2)c1` [Compound 27, 4-{4-[(3-methanesulfonylphenyl)methyl]pyridin-2-yl}benzamide]: the EC50 is 101 to 1000 nM.

For `Cc1cc(F)cc(Cc2ccnc(-c3cccc(C(N)=O)c3)c2)c1` [Compound 22, 3-{4-[(3-fluoro-5-methylphenyl)methyl]pyridin-2-yl}benzamide], the EC50 lay in the range of 101 to 1000 nM.

Take `NC(=O)c1ccc(-c2cc(Cc3cc(F)cc(Cl)c3)ccn2)cc1` [Compound 21, 4-{4-[(3-chloro-5-fluorophenyl)methyl]pyridin-2-yl}benzamide]: the EC50 fell in the range of 101 to 1000 nM.

Turning to `NC(=O)C1CCN(c2cc(Cc3cccc(C(F)(F)F)c3)ccn2)CC1` [Compound 41, 1-(4-{[3-(trifluoromethyl)phenyl]methyl}pyridin-2-yl)piperidine-4-carboxamide], the EC50 was in the range of 25 to 100 nM.

Turning to `NC(=O)c1ccc(-c2cc(Cc3ccc(F)c(C(F)(F)F)c3)ccn2)cc1` [Compound 23, 4-(4-{[4-fluoro-3-(trifluoromethyl)phenyl]methyl}pyridin-2-yl)benzamide], the EC50 fell in the range of 101 to 1000 nM.
